Reference: article PMC4306533, “Distinct Features of Cap Binding by eIF4E1b Proteins” (Journal of Molecular Biology, 2015)

How the values were obtained:
[1] = target: T1, X4E1a4 (E101S/K102R/S195A/M82S) (Xenopus laevis, UniProt P48597, E101S/K102R/M82S/S195A); experiment: fluorescence titration, XeIF4E1a mutant; assay type: binding; conditions: mutant (E101S/K102R/S195A/M82S) of XeIF4E1a
T1 construct: made in house; host or cells: E. coli Rosetta2(DE3)
Text: (§1) We tested the effect on cap-binding activity of these positions in the fluorescence assay with six mutated recombinant versions of Xenopus eIF4E1a (Fig. S4). The amino acids were introduced in XeIF4E1a sequentially in the order: E101S/K102R/S195A/M82S/T206L/T207S (numbering of the XeIF4E1a sequence is shifted backward by 4 amino acids relative to XeIF4E1b). […] The biggest contribution to the weaker cap binding of XeIF4E1a, in each case about 20%, resulted from changing Glu101 to Ser and Thr206 to Leu coupled with Thr207 to Ser, with the remaining mutations having only minor effects. […] Glu101 is a solvent-accessible amino acid and is proximal to Trp98 in the S3-S4 loop. […] Attenuation of the cap-binding affinity of XeIF4E1a resulting from mutating Thr206 and Thr207 is consistent with our results mentioned above showing significant influence of C-terminal loop residues on binding phosphate and the second nucleotide.
(§2) For human eIF4E1a and eIF4E1b and also for Xenopus eIF4E1a and its mutated forms, measurements were carried out using 0.1 μM protein in 50 mM Hepes/KOH (pH 7.2), 134.5 mM KCl, 0.5 mM EDTA and 1 mM DTT. For Xenopus eIF4E1b(ΔN27), the concentration was 0.2 μM and glycerol was added to the buffer to 10% (v/v) final concentration. […] The gradually increasing concentration of cap analogue quenches protein fluorescence without shifting the spectrum maximum, while at high concentrations, the fluorescence signal of free cap analogue dominates over the fluorescence from other solution components including free eIF4E and eIF4E in complex with cap (Fig. S2a). Fluorescence of measured samples was excited at 280 nm (2.5 nm bandwidth) and detected at 337 nm or 330 nm (4 nm bandwidth), thus reducing the signal originated from the free cap analogues. Measurements were carried out on a LS-55 spectrofluorometer (Perkin Elmer Co.) using freshly prepared proteins, and the fluorescence intensities were corrected for sample dilution and the inner filter effect.
(§3) Equilibrium association constants (Kas) were determined by fitting the theoretical dependence of fluorescence intensity on the total concentration of the cap analogue to the experimental data points, according to the equation described previously (see Ref. [22] and Fig. S2c). […] Along with Kas and the concentration of the active protein [P0^act], other parameters such as fL and ∆f = fPact − fPL are also gained from the fit, where fL represents the fluorescence efficiency of free cap analogue and ∆f represents the difference between the fluorescence efficiencies of the apo-protein and the complex (Fig. S2c).
(§4) The final Kas was calculated as a weighted average of 2–6 independent titrations with the weights taken as the reciprocal of the numerical standard deviation squared. Numerical, nonlinear least-squares regression analysis was performed using Origin 6.0 (Microcal Software Inc.). Obtained association constants were used to determine the Gibbs free energy according to the standard equation ΔG° = − RTlnKas.

[2] = target: T2, X4E1a6 (E101S/K102R/S195A/M82S/T206L/T207S) (Xenopus laevis, UniProt P48597, E101S/K102R/M82S/S195A/T206L/T207S); experiment: fluorescence titration, XeIF4E1a mutant; assay type: binding; conditions: mutant (E101S/K102R/S195A/M82S/T206L/T207S) of XeIF4E1a
T2 construct: made in house; host or cells: E. coli Rosetta2(DE3)
T2 sequence (P48597 whole entry M82S/E101S/K102R/S195A/T206L/T207S): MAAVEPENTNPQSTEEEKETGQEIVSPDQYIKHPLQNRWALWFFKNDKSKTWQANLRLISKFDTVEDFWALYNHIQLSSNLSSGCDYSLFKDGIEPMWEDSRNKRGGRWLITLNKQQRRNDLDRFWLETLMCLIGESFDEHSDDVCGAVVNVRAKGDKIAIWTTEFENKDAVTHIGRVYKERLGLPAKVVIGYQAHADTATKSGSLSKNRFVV
Text: as §1, §2, §3, §4

X4E1a2 (E101S/K102R) = target: T3, X4E1a2 (E101S/K102R) (Xenopus laevis, UniProt P48597, E101S/K102R); experiment: fluorescence titration, XeIF4E1a mutant; assay type: binding; conditions: mutant (E101S/K102R) of XeIF4E1a
T3 construct: made in house; host or cells: E. coli Rosetta2(DE3)
T3 sequence (P48597 whole entry E101S/K102R): as the sequence (P48597 whole entry M82S/E101S/K102R/S195A/T206L/T207S) above, with S82M, A195S, L206T, S207T counted along it
Text: as §1, §2, §3, §4

[3] = target: T4, X4E1a3 (E101S/K102R/S195A) (Xenopus laevis, UniProt P48597, E101S/K102R/S195A); experiment: fluorescence titration, XeIF4E1a mutant; assay type: binding; conditions: mutant (E101S/K102R/S195A) of XeIF4E1a
T4 construct: made in house; host or cells: E. coli Rosetta2(DE3)
T4 sequence (P48597 whole entry E101S/K102R/S195A): as the sequence (P48597 whole entry M82S/E101S/K102R/S195A/T206L/T207S) above, with S82M, L206T, S207T counted along it
Text: as §1, §2, §3, §4

X4E1a1 (E101S) = target: T5, X4E1a1 (E101S) (Xenopus laevis, UniProt P48597, E101S); experiment: fluorescence titration, XeIF4E1a mutant; assay type: binding; conditions: mutant (E101S) of XeIF4E1a
T5 construct: made in house; host or cells: E. coli Rosetta2(DE3)
T5 sequence (P48597 whole entry E101S): as the sequence (P48597 whole entry M82S/E101S/K102R/S195A/T206L/T207S) above, with S82M, R102K, A195S, L206T, S207T counted along it
Text: as §1, §2, §3, §4

X4E1a1’ (K102R) = target: T6, X4E1a1’ (K102R) (Xenopus laevis, UniProt P48597, K102R); experiment: fluorescence titration, XeIF4E1a mutant; assay type: binding; conditions: mutant (K102R) of XeIF4E1a
T6 construct: made in house; host or cells: E. coli Rosetta2(DE3)
T6 sequence (P48597 whole entry K102R): as the sequence (P48597 whole entry M82S/E101S/K102R/S195A/T206L/T207S) above, with S82M, S101E, A195S, L206T, S207T counted along it
Text: as §1, §2, §3, §4

heIF4E1b [4] = experiment: time-synchronized fluorescence titration of cap analogue binding; design: species or system human; conditions: for Ratio Kas (h4E1a) to Kas (h4E1b): without glycerol
Text: (§5) The time-synchronized fluorescence titration method, widely used to determine the affinity constants of cap–eIF4E complexes [[20,22–26]], measures the quenching of the intrinsic fluorescence of tryptophan residues due to cap binding (Fig. S2). Knowledge of the equilibrium association constant Kas enables the calculation of the free-energy changes involved in the interaction between eIF4E and ligand, according to the standard equation ΔG° = − RTlnKas.
(§6) For human eIF4E1a and eIF4E1b and also for Xenopus eIF4E1a and its mutated forms, measurements were carried out using 0.1 μM protein in 50 mM Hepes/KOH (pH 7.2), 134.5 mM KCl, 0.5 mM EDTA and 1 mM DTT. For Xenopus eIF4E1b(ΔN27), the concentration was 0.2 μM and glycerol was added to the buffer to 10% (v/v) final concentration. […] Fluorescence of measured samples was excited at 280 nm (2.5 nm bandwidth) and detected at 337 nm or 330 nm (4 nm bandwidth), thus reducing the signal originated from the free cap analogues. Measurements were carried out on a LS-55 spectrofluorometer (Perkin Elmer Co.) using freshly prepared proteins, and the fluorescence intensities were corrected for sample dilution and the inner filter effect.
(§7) Equilibrium association constants (Kas) were determined by fitting the theoretical dependence of fluorescence intensity on the total concentration of the cap analogue to the experimental data points, according to the equation described previously (see Ref. [22] and Fig. S2c).
as §4

XeIF4E1a [5] = target: T7, XeIF4E1a (Xenopus laevis, UniProt P48597); experiment: as above; conditions: for ΔΔG^o + glycerol XeIF4E1a / Kas + glycerol XeIF4E1a: 10% glycerol; for Kas + glycerol XeIF4E1a / Kas − glycerol XeIF4E1a: equilibrium association constant; for Kas − glycerol XeIF4E1a: buffer without glycerol
T7 construct: made in house; host or cells: E. coli Rosetta2(DE3)
T7 sequence (P48597 whole entry): as the sequence (P48597 whole entry M82S/E101S/K102R/S195A/T206L/T207S) above, with S82M, S101E, R102K, A195S, L206T, S207T counted along it
Text: as §5, §6, §7, §4

XeIF4E1a [6] = experiment: as above; design: species or system Xenopus laevis; conditions: without glycerol
Text: as §5, §6, §7, §4

heIF4E1a [7] = target: T8, heIF4E1a (Homo sapiens, UniProt P06730); experiment: as above; conditions: change relative to m^7GTP; without glycerol
T8 construct: made in house; host or cells: E. coli Rosetta2(DE3)
T8 sequence (P06730 whole entry): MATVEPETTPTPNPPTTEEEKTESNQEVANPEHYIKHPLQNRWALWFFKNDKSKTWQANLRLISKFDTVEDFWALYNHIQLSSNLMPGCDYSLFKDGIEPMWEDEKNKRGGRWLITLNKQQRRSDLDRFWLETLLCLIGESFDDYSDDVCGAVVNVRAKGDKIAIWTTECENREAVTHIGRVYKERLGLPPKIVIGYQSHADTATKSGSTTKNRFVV
Text: as §5, §6, §7, §4

heIF4E1b [8] = target: T9, heIF4E1b (Homo sapiens, UniProt A6NMX2); experiment: as above; conditions: for Kas − glycerol heIF4E1b: equilibrium association constant, buffer without glycerol
T9 construct: made in house; host or cells: E. coli Rosetta2(DE3)
T9 sequence (A6NMX2 1-242): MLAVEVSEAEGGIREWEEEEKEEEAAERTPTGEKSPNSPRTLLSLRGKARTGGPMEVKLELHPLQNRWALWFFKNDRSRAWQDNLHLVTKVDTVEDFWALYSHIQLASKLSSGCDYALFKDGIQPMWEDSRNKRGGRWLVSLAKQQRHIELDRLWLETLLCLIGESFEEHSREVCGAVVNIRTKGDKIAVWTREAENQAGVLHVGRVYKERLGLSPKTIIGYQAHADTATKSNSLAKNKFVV
Text: as §5, §6, §7, §4

XeIF4E1bΔN27 = experiment: as above; design: species or system Xenopus laevis; conditions: 10% glycerol
Text: as §5, §6, §7, §4

heIF4E1a [9] = target: T8, heIF4E1a; design: method as in PMID 17369309; conditions: equilibrium association constant; buffer without glycerol; footnote b; cited from earlier work
in vitro translation = system: in vitro translation; design: method as in PMID 10387101; conditions: Cai et al.; read-out: IC50 (inhibitory potency); cited from earlier work
[10] = change relative to m^7GTP, without glycerol

T1 sequence (P48597 whole entry M82S/E101S/K102R/S195A): as the sequence (P48597 whole entry M82S/E101S/K102R/S195A/T206L/T207S) above, with L206T, S207T counted along it

Ratio Kas (h4E1a) to Kas (h4E1b) (heIF4E1b [4])	Kas + glycerol XeIF4E1a (XeIF4E1a [5]) [μM^− 1]	Kas − glycerol XeIF4E1a (XeIF4E1a [5]) [μM^− 1]	Ratio Kas (h4E1a) to Kas (X4E1a) (XeIF4E1a [6])	Kas − glycerol heIF4E1b (heIF4E1b [8]) [μM^− 1]	SMILES	Kas − glycerol heIF4E1a (heIF4E1a [9])	also measured
1.68	2.291 ± 0.065	3.98 ± 0.11	1.49	3.53 ± 0.11	Cn1c[n+]([C@@H]2O[C@H](COP(=O)(O)OP(=O)([O-])OP(=O)(O)OC[C@H]3O[C@@H](n4cnc5c(=O)[nH]c(N)nc54)[C@H](O)[C@@H]3O)[C@@H](O)[C@H]2O)c2nc(N)[nH]c(=O)c21 [m^7GpppG]	5.94 ± 0.39 ^b μM^− 1	Kas X4E1a4 [1]: 2.87 ± 0.11 µM⁻¹; Kas X4E1a6 [2]: 2.54 ± 0.15 µM⁻¹; Kas X4E1a2 (X4E1a2 (E101S/K102R)): 2.81 ± 0.10 µM⁻¹; Kas X4E1a3 [3]: 2.417 ± 0.051 µM⁻¹; Kas X4E1a1 (X4E1a1 (E101S)): 3.38 ± 0.16 µM⁻¹; Kas X4E1a1’ (X4E1a1’ (K102R)): 3.341 ± 0.090 µM⁻¹; ΔΔG^o + glycerol XeIF4E1a (XeIF4E1a [5]; change relative to m^7GTP): 1.351 ± 0.028 kcal/mol; ΔΔG^o − glycerol XeIF4E1a (XeIF4E1a [5]; [10]): 1.382 ± 0.032 kcal/mol; ΔΔG^o − glycerol heIF4E1a (heIF4E1a [7]): 1.423 ± 0.058 kcal/mol; ΔΔG^o − glycerol heIF4E1b (heIF4E1b [8]; [10]): 1.065 ± 0.040 kcal/mol; Ratio Kas (X4E1a) to Kas (X4E1bΔN27) (XeIF4E1bΔN27): 2.59; ΔΔG^o + glycerol XeIF4E1bΔN27 (XeIF4E1bΔN27; change relative to m^7GTP): 1.268 ± 0.037 kcal/mol; Kas + glycerol XeIF4E1bΔN27 (XeIF4E1bΔN27; equilibrium association constant): 0.883 ± 0.032 μM^− 1
0.17	0.055 ± 0.021	0.031 ± 0.006	0.87	0.159 ± 0.040	Nc1nc2c(ncn2[C@@H]2O[C@H](COP(=O)(O)OP(=O)(O)OP(=O)(O)O)[C@@H](O)[C@H]2O)c(=O)[nH]1 [GTP, reference compound]	0.027 ± 0.001 ^b μM^− 1	fold higher affinity of human eIF4E1b than eIF4E1a (heIF4E1b [4]; human proteins): approximately 5 fold
–	–	–	–	–	Nc1nc2c(c(=O)[nH]1)[n+](Cc1ccc(Cl)cc1)cn2[C@@H]1O[C@H](COP(=O)([O-])O)[C@@H](O)[C@H]1O [p-Cl-bn^7GMP]	–	IC50 (in vitro translation): 51 µM
1.32	1.96 ± 0.24	–	–	4.63 ± 0.12	COC1C(O)C(COP(=O)(O)OP(=O)(O)OP(=O)(O)OCC2OC(n3cnc4c(=O)[nH]c(N)nc43)C(O)C2O)OC1n1c[n+](C)c2c(=O)[nH]c(N)nc21 (centres unmarked) [m^7,2′-OGpppG]	6.13 ± 0.34 ^b μM^− 1	ΔΔG^o + glycerol XeIF4E1a (XeIF4E1a [5]; change relative to m^7Gp3G): 0.091 ± 0.074 kcal/mol
